In article PMC6857051, “Proliferative regulation of alveolar epithelial type 2 progenitor cells by human Scnn1d gene” (Theranostics, 2019):

How the values were obtained:
[1] = target: ENaC activity in mouse tracheal epithelial (MTE) monolayers, control; test: Ussing chamber short-circuit current, control MTE monolayers (uninduced δ802Tg); type: cell-based
[2] = target: T1, human αβγ-ENaC (Homo sapiens, UniProt P37088+P51168+P51170); test: Two-electrode voltage clamp of αβγ-ENaC expressed in Xenopus oocytes; type: cell-based
T1 construct: expressed in transfected cells; host or cells: Xenopus laevis oocytes injected with cRNA (pGEM HE vector)
T1 sequence (P37088 1-669): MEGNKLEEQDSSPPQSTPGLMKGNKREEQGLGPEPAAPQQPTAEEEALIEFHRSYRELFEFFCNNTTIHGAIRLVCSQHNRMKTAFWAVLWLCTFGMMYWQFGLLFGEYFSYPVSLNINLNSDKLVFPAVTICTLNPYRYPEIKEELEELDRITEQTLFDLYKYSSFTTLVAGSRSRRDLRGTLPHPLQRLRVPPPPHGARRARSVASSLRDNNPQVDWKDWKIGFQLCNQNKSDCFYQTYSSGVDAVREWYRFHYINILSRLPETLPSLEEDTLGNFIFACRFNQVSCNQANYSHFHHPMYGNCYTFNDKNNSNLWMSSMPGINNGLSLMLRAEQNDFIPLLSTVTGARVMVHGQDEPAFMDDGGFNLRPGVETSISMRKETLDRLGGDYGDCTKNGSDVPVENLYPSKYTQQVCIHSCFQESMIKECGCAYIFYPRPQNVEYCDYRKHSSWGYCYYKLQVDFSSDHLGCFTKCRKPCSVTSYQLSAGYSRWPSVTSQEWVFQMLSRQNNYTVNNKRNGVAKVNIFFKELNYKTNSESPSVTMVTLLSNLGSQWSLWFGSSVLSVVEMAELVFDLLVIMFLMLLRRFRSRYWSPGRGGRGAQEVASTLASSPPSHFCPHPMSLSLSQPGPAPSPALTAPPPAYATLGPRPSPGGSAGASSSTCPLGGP
T1 sequence (P51168 1-640): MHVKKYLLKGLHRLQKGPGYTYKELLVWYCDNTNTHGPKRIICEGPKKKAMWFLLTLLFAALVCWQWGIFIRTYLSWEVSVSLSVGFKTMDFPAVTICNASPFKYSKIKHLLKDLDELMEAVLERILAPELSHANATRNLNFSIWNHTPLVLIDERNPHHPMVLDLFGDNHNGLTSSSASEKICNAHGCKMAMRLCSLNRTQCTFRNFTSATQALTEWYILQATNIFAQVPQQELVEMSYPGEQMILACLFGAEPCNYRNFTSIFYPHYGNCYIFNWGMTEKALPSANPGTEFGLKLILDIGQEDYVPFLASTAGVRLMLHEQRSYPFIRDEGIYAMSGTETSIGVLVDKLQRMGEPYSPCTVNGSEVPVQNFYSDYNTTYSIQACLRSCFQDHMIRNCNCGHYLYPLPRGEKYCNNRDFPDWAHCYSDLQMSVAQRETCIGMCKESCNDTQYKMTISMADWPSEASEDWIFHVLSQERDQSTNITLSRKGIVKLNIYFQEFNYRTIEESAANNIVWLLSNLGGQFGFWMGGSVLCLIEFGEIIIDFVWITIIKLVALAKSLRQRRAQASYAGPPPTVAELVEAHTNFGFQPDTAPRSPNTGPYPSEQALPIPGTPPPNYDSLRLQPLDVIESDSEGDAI
T1 sequence (P51170 1-649): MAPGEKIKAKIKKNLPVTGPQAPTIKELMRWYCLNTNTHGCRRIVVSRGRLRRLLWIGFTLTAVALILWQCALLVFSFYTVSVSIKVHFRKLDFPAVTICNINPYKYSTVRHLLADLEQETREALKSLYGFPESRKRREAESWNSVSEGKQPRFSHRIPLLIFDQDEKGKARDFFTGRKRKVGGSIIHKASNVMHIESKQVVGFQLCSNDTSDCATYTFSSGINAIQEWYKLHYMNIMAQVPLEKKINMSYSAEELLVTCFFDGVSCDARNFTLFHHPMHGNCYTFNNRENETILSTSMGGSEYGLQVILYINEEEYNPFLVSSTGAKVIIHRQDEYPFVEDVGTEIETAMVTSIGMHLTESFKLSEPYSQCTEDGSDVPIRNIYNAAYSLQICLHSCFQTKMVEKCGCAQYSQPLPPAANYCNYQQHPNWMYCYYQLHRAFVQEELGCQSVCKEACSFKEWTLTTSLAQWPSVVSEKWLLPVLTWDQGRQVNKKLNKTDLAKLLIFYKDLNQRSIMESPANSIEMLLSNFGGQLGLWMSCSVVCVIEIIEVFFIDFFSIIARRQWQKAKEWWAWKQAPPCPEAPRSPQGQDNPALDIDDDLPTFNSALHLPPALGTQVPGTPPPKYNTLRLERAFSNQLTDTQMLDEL
Procedure: Cloning, in vitro transcription, and heterologous expression of δ802 ENaC and two-electrode voltage clamping assay. δ802 and other ENaC subunits were generated in human ENaC cDNAs cloned into a pGEM HE vector [4], [76]. cRNAs of human α, β, and γ ENaC were prepared as described previously. The stoichiometry of native ENaC complexes is unclear to date. Based on the studies in the last decade, several models have been proposed for αβγ ENaC channels: 1α1β1γ, 2α1β1γ, 3α3β3γ. Based on the EM structure of human αβγ ENaC [35], the currently acceptable model of human αβγ ENaC complexes is heterotrimeric (1α1β1γ). Thus we microinjected δ802:β:γ in a 1:1:1 subunit ratio. Oocytes were surgically removed from appropriately anesthetized adult female Xenopus laevis (Xenopus Express). Briefly, the ovarian tissue was removed from the frog under anesthesia by tricaine-S (Western Chemicals) through a small incision in the lower abdomen. Ovarian lobes were removed and digested in OR-2 calcium-free medium (in mM: 82.5 NaCl, 2.5 KCl, 1.0 MgCl2, 1.0 Na2HPO4, and 10.0 HEPES, pH 7.5) with the addition of 2 mg/ml collagenase (Roche, Indianapolis). Defolliculated oocytes were injected with ENaC cRNAs into the cytosol (25 ng per oocyte in 50 nl of RNase-free water) and incubated in regular OR-2 medium at 18°C. The two-electrode voltage-clamp technique was used to record whole-cell currents 48 h post injection. Oocytes were impaled with two electrodes filled with 3M KCl, having resistance of 0.5 - 2 MΩ. A TEV-200A voltage-clamp amplifier (Dagan) was used to clamp oocytes with concomitant recording of currents. Two reference electrodes were connected to the bath. The continuously perfused bathing solution was ND-96 medium (in mM: 96.0 NaCl, 1.0 MgCl2, 1.8 CaCl2, 2.5 KCl, and 5.0 HEPES, pH 7.5). Whole-cell currents were recorded as previously reported. Experiments were controlled by pCLAMP 10.7 software (Molecular Devices), and currents at -40 mV, -100 mV, and +80 mV were continuously monitored with data recorded at intervals of 10 sec. Data were sampled at the rate of 200 Hz and filtered at 50 Hz.

N=C(N)NC(=O)c1nc(Cl)c(N)nc1N [amiloride] was tested, and the Ki ([1]; Isc, Ussing chamber, amiloride 1 - 1,000 μM, n=5, read-out: ki value (logistic function), control MTE monolayers (converted)) was 680 nM.

For Ac-LRGTLPHPLQRLR-NH2 [α-13 peptide], the “α-13 inhibitable fraction of αβγ-ENaC channels after plasmin / aprotinin pre-treatment” value ([2]; n=8, Figure 3E) was “not significantly affected by fibrinolytic activity”, the IC50 ([2]; oocytes, current at -100 mV, n=4, Chi^2 = 0.44, R^2 = 0.993, read-out: IC50 on αβγ-ENaC channels (Hill equation)) was 100 ± 10 nM and the “inhibition of human αβγ-ENaC current” value ([2]; α-13 300 μM compared with amiloride 10 μM, -100 mV, subsequent amiloride did not reduce activity further) was “same efficacy as amiloride”. For the same molecule, the “α-13 peptide-inhibitable fraction of Isc, control cells” value ([1]; α-13 300 μM apical, MTE monolayers, n=6) was 96%.

B1: plasmin: serine protease of the plasmin(ogen) signal pathway for fibrinolysis (protein, UniProt P00747 20-580; P00747 581-810, looked up)
Plasmin heavy chain A: EPLDDYVNTQGASLFSVTKKQLGAGSIEECAAKCEEDEEFTCRAFQYHSKEQQCVIMAENRKSSIIIRMRDVVLFEKKVYLSECKTGNGKNYRGTMSKTKNGITCQKWSSTSPHRPRFSPATHPSEGLEENYCRNPDNDPQGPWCYTTDPEKRYDYCDILECEEECMHCSGENYDGKISKTMSGLECQAWDSQSPHAHGYIPSKFPNKNLKKNYCRNPDRELRPWCFTTDPNKRWELCDIPRCTTPPPSSGPTYQCLKGTGENYRGNVAVTVSGHTCQHWSAQTPHTHNRTPENFPCKNLDENYCRNPDGKRAPWCHTTNSQVRWEYCKIPSCDSSPVSTEQLAPTAPPELTPVVQDCYHGDGQSYRGTSSTTTTGKKCQSWSSMTPHRHQKTPENYPNAGLTMNYCRNPDADKGPWCFTTDPSVRWEYCNLKKCSGTEASVVAPPPVVLLPDVETPSEEDCMFGNGKGYRGKRATTVTGTPCQDWAAQEPHRHSIFTPETNPRAGLEKNYCRNPDGDVGGPWCYTTNPRKLYDYCDVPQCAAPSFDCGKPQVEPKKCPGR
Plasmin light chain B: VVGGCVAHPHSWPWQVSLRTRFGMHFCGGTLISPEWVLTAAHCLEKSPRPSSYKVILGAHQEVNLEPHVQEIEVSRLFLEPTRKDIALLKLSSPAVITDKVIPACLPSPNYVVADRTECFITGWGETQGTFGAGLLKEAQLPVIENKVCNRYEFLNGRVQSTELCAGHLAGGTDSCQGDSGGPLVCFEKDKYILQGVTSWGLGCARPNKPGVYVRVSRFVTWIEGVMRNN
modifications: Plasmin
notes: serine protease of the plasmin(ogen) signal pathway for fibrinolysis
B1 was tested, and the “effect of pre-treatment on αβγ-ENaC activity” value ([2]; oocytes pre-treated, currents at -100 mV, n=5, Figure 3D) was “potentiated”.
